According to patent US11071727B2, “Therapeutic targeting of proteolytic cleavage of the mixed lineage leukemia gene product (MLL1) by taspase1 using kinase inhibitors” (Northwestern University, priority 2018, dated 2021):

Legend:
MLL1 = assay: Western blot of full-length MLL1 protein levels in cells treated with CKII inhibitors; format: cell-based, human; settings: 30 hours
Protocol: (§1) FIG. 5. CKII inhibitors selectively increase full-length MLL1 protein levels by decreasing the phosphorylation of MLL1 near the cleavage sites. (A) Conservation of the sequences flanking MLL1-CS2, MLL2 and TFIIA cleavage sites and phosphorylated serine and threonine residues after the cleavage sites (highlighted in red). (B) and (C) 293T cells were transfected with vector control (VT), WT, AA or DD reporter constructs of MLL1-p75 or TFIIA. Western blot was performed with anti-Flag antibody for MLL1 (p75: FL, p47: cleaved) or TFIIA (p54: FL, p47: cleaved). (D) and (E) 293T cells were transfected with WT or AA reporter constructs of MLL1-p75 or TFIIA in the presence or absence of HA-taspase1. Western blot was performed with anti-Flag antibody for MLL1 or TFIIA, or anti-HA antibody for taspase1. (F) 293T cells were infected with shRNAs against CKIIα or CKIIα′. Western blot was performed with anti-MLL1C antibody for MLL1 full-length protein levels, and CKIIα or CKIIα′ for knockdown efficiency. (G) 293T cells were treated with DMSO or 10 μM CX-4945 for 30 hours. Cells were harvested and lysed for Western blot against MLL1, MLL2 or TFIIA using β-tubulin as the loading control. (H) and (I) 293T taspase1 KO cells were pre-treated with CX-4945 (3 μM) or TTP22 (10 μM) for 30 hours. Whole cell lysates from the two conditions were incubated with increasing concentrations of his-taspase1 and subject to in vitro taspase1 assay.
FIG. 13. CKII inhibitors increase full-length MLL1 protein levels. (A) Prediction of kinases that phosphorylate MLL1 near the taspase1 cleavage site. (B) Structure of the CKII inhibitors CX-4945, TTP22, DMAT and TTB. (C) Comparison of the IC50 and molecular weight of the four CKII inhibitors. […] Quantification of the band intensities was performed by ImageJ software. (E) and (F) in vitro taspase1 cleavage assay. Taspase1 KO cell lysates were incubated with recombinant his-tagged taspase1 (0, 1, 10, 100 or 1000 ng) and subject to in vitro taspase1 cleavage assay. Cleavage efficiency was shown as the blotting for MLL1 and TFIIA using Hsp90 as the loading control.
Cell culture. […]

[1] = test system: MLL1 cleavage by taspase1; assay: in vitro taspase1 cleavage assay on lysates of pretreated taspase1 KO cells; format: biochemical, human; settings: 293T taspase1 KO cells pretreated 30 hours with CX-4945 (3 μM) or TTP22 (10 μM), compared with DMSO control
Protocol: as §1, with “(H) and (I) 293T taspase1 KO cells were pre-treated with CX-4945 (3 μM) or TTP22 (10 μM) for 30 hours. Whole cell lysates from the two conditions were incubated with increasing concentrations of his-taspase1 and subject to in vitro taspase1 assay.” left out
in vitro taspase1 cleavage assay. […] Cleavage efficiency was detected by western blot against MLL1C and TFIIA using Hsp90 as the loading control.

MLL1, MLL-AF4 = assay: Western blot of MLL1 full-length and MLL-AF4 fusion protein levels in SEM cells; format: cell-based, human; settings: SEM cells, 0, 5 or 10 μM, 30 hours
Protocol: FIG. 6. CKII inhibition increases genome-wide MLL occupancy and excludes SEC recruitment in MLL leukemia cells. (A) and (B) MLL1C occupancy in CX-4945 or TTP22 treated cells were shown relative to DMSO control. […] (C) Track examples of the MLL1 occupancy at the promoter regions of ELF2 and C6orf211. (D) CX-4945 inhibition of leukemia cell proliferation. Multiple MLL leukemia (orange lines) and non-MLL leukemia (blue lines) were cultured with different doses of CX-4945 for 3 days. Cell number was determined by cell counter and normalized to DMSO control. (E) SEM cells were treated with 0, 5 or 10 μM of CX-4945 for 30 hours and western blot was performed to determine the MLL1 full-length protein levels and MLL-AF4 fusion protein levels. (F) MLL-AFF1, AFF4 and ELL2 occupancies were decreased by CX-4945 treatment in SEM cells.
Cell culture. All of the cell lines were purchased from the American Type Culture Collection (Rockville, Md.). 293T, MCF7 and HCT116 cell lines were maintained in Dulbecco's modified Eagle's medium (DMEM) (Gibco, Gaithersburg, Md.) supplemented with 10% fetal bovine serum (FBS) (Gibco) at 37° with 5% CO2. SEM was maintained in IMDM with 10% FBS. MM6 was maintained in RPMI1640 supplemented with 10% FBS and non-essential amino acids. MOLM13, RS4:11, MV4-11, RL, REH, U937m SU-DHL-6 and OCI-LY1 were maintained in RPMI1640 supplemented with 10% FBS. […]

MLL2, TFIIA = assay: Western blot of MLL2 and TFIIA cleavage in 293T cells treated with CX-4945; format: cell-based, human; settings: 10 μM, 30 hours
Protocol: as §1, with “Whole cell lysates from the two conditions were incubated with increasing concentrations of his-taspase1 and subject to in vitro taspase1 assay.” left out

## O=C(O)c1ccc2c(c1)nc(Nc1cccc(Cl)c1)c1ccncc12 [CX-4945, 5-(3-chlorophenylamino)benzo[c][2,6]naphthyridine-8-carboxylic acid]
MLL1; 293T cells, 10 μM
  conversion from cleaved MLL1 to full-length MLL1: increased the conversion from cleaved MLL1 to full-length MLL1
MLL1; 293T, MCF7 and HCT116 cells, 0-20 μM, Western blot with MLL1C antibody
  MLL1 full-length protein levels: dose-dependent increase of MLL1 full-length protein levels
[1]
  cleavage efficiency by recombinant taspase1 protein: cleavage efficiency was significantly diminished
MLL1, MLL-AF4
  MLL1-FL protein levels: MLL1-FL protein levels also increased
  MLL-AF4 protein levels: without altering MLL-AF4 protein levels
MLL2, TFIIA
  cleavage of MLL2 or TFIIA: without affecting the cleavage of MLL2 or TFIIA
